Data published in patent publication US9717820B2, “Procoagulant peptides and their derivatives and uses therefor” (Ethicon, Inc., priority 2011, dated 2017).
No end group written: not given here. mPEG 5000 = methoxy-PEG, average 5000 Da, coupled via mPEG-NHS

Columns and labels:
[1] = tested on: Heparinized Porcine spleen biopsy punch model; test: Heparinized porcine spleen biopsy punch model, time to hemostasis; type: in vivo; conditions: mixture with Surgiflo; for hemostatic effect in heparinized blood: 2 mL of 5 mM in saline (thrombin: EVITHROM), ACT above 300 seconds
From the text: The model was Heparinized Porcine spleen biopsy punch model: 6 mm wide×3 mm deep, tamponade time: 30 sec; observation time: 30 sec; activated clotting time (ACT) was maintained above 300 seconds by infusing additional 2000 IU heparin solution if needed. 9975 IU of heparin solution was initially applied to a 39.1 Kg porcine.

[2] = tested on: porcine spleen biopsy punch model; test: porcine spleen biopsy punch model, time to hemostasis; type: in vivo; conditions: for hemostatic efficacy (time to hemostasis): pegylated (PEG2000) 8 amino acid peptides in mixture with Surgiflo, FIG. 5; for hemostatic performance vs Surgiflo with normal saline: ORC powder scaffold, FIG. 5, N=4; for time to hemostasis vs Surgiflo with saline and with PEG2000 (5 mM): FIG. 3, N=3; for hemostatic efficacy vs Surgiflo with thrombin: 0.05-5 mM; for time to hemostasis vs thrombin: FIG. 2, N=3
Experimental: The data was collected using in vivo porcine spleen biopsy punch model [6 mm wide×3 mm deep], initial tamponade time: 30 s; observation time: 30 s; N=3.
In vivo hemostatic activity study was performed using the porcine spleen biopsy punch model, with the punched wound opening 6 mm wide×3 mm deep made on the spleen and the test article applied to a freshly created wound site followed by an occlusive digital pressure (tamponade). Pressure was initially applied for 30 second and was timed using an electronic timer. Following the 30 seconds tamponade, digital pressure was discontinued; the gauze pad on the article was immediately removed. A 30-second hemostasis evaluation period was performed. If free flow bleeding was not observed within 30 seconds, the time to hemostasis was noted, in a minutes seconds format, and testing was concluded for that article. If free flow bleeding was observed, pressure and gauze were reapplied for additional 30 seconds tamponade and observation periods until hemostasis was achieved or until the testing period reached ten minutes. Hemostasis was determined by the cessation of free flow bleeding in less than ten minutes. Gauze pad was used as a negative control.
The data was collected using porcine spleen biopsy punch model [6 mm wide×3 mm deep], initial tamponade time: 30 s; observation time: 30 s; N=3.
The data was collected using porcine spleen biopsy punch model [6 mm wide×3 mm […]], initial tamponade time: 30 s; observation time: 30 s; N=3.
The inventors have tested the following ORC-based compositions: • mixtures of ORC with pegylated SEQ ID NO: 1 at 5 mM concentration (designated on the chart as ORC/PEG2000-RK-8) • mixtures of ORC with SEQ ID NO: 1 at 5 mM concentration (designated on the chart as ORC/RK-8) • mixtures of ORC with normal saline The data was collected using porcine spleen biopsy punch model [6 mm wide×3 mm […]], initial tamponade time: 30 s; observation time: 30 s; N=4.
The data was collected using porcine spleen biopsy punch model [6 mm wide×3 mm deep], initial tamponade time: 30 s; observation time: 30 s.

[3] = tested on: porcine blood containing sodium citrate; test: bench top test: solution added to citrated porcine blood in glass vials; conditions: 100 μL of 0.5 mM solution added to 100 μL citrated porcine blood; for precipitation of blood: after 2 hrs
Experimental: In a bench top experiment, pegylated SEQ ID NO: 1 in normal saline solution, non-pegylated SEQ ID NO: 1 in normal saline solution, and control solution of normal saline were tested to evaluate interaction with blood. Samples were prepared by adding 100 μL of pegylated SEQ ID NO: 1 in normal saline solution (0.5 mM), SEQ ID NO: 1 in normal saline solution (0.5 mM), and normal saline to separate glass vials containing 100 μL of porcine blood containing sodium citrate (0.105M). […] Thus the pegylated SEQ ID NO: 1 and non-pegylated SEQ ID NO: 1 was shown as promoting rapid blood coagulation.

washed human platelets = washed human platelets from different donors; cited from earlier work
fresh porcine blood = test: bench top test: treated Monocryl pad with fresh porcine blood; conditions: 100 μL of 0.5 mM on 0.025 g Monocryl pad, 150 μL fresh porcine blood, 2 minutes, room temperature
Experimental: In a bench top experiment, a synthetic porous pad was treated with pegylated SEQ ID NO: 1 in saline solution or with control solution of saline to evaluate interaction with blood. Samples were prepared by adding 100 μL of pegylated SEQ ID NO: 1 in normal saline solution (0.5 mM) or 200 μL of normal saline solution to 0.025 g Monocryl (poliglecaprone 25) pad. The impregnated Monocryl* (poliglecaprone 25) pads were then air-dried for 2 hrs following by an 1-hr vacuum drying process.
150 μL of fresh porcine blood was then added to each pad separately, and allowed it sit at room temperature for 2 minutes. The pads were then transferred to a Petri dish containing 20 mL of saline solution, observing non-coagulated blood diffusing out from the pads. […] Thus the pegylated SEQ ID NO: 1 was shown as promoting rapid blood coagulation.

[4] = tested on: clopidogrel and acetylsalicylic acid treated porcine spleen biopsy punch model; test: clopidogrel and acetylsalicylic acid treated porcine spleen biopsy punch model (platelet inactivated); type: in vivo; conditions: mixture with Surgiflo, 0.5 mM PEG2000-RK8 in saline, FIG. 8
Experimental: The data was collected using a clopidogrel and acetylsalicylic acid treated porcine spleen biopsy punch model (6 mm wide×3 mm deep, tamponade time: 30 sec; observation time: 30 sec; the following oral dosages were applied to a 4-month-old female porcine (weight: 66.1 Kg): • 2 days prior to the lab: 300 mg of Plavix and 325 mg of aspirin. • 1 day prior to the lab: 75 mg of Plavix and 325 mg of aspirin. • The day for the lab: 75 mg of Plavix and 325 mg of aspirin before the surgery.

[5] = mixture with Surgiflo, 5 mM, FIG. 6
[6] = mixture with Surgiflo, FIG. 4, N=3

| Substance | hemostatic effect in heparinized blood ([1]; FIG. 7) | hemostatic efficacy (time to hemostasis) ([2]; 5 mM) | hemostatic performance vs Surgiflo with normal saline ([2]; 5 mM) | time to hemostasis vs Surgiflo with saline and with PEG2000 (5 mM) ([2]; mixture with Surgiflo, 5 mM) | effectiveness as hemostatic agent (time to hemostasis) [2, 5] | hemostatic efficacy vs Surgiflo with thrombin [2, 6] | clouding of blood [3] | precipitation of blood [3] | further results |
| --- | --- | --- | --- | --- | --- | --- | --- | --- | --- |
| PEG5000-SEQ ID NO: 1: SEQ ID NO: 1 with mPEG 5000 conjugated onto the N-terminus via mPEG-NHS ({mPEG 5000}-RFYVVMWK) | significant hemostatic efficacy |  |  |  |  |  |  |  | hemostatic efficacy vs thrombin, non-pegylated SEQ ID NO: 1 and other controls ([1]; heparinized blood, 5 mM): superior hemostatic efficacy |
| SEQ ID NO: 21: PEG2000-conjugated random sequence 8 amino acid peptide KVYRWFMV (PEG2000-KVYRWFMV) [reference compound] |  | longer time to hemostasis, comparable to SF/saline mixture |  |  |  |  |  |  |  |
| thrombin | failed as hemostat in heparinized blood |  |  |  |  |  |  |  |  |
| Arg-Phe-Tyr-Val-Val-Met-Trp-Lys (RFYVVMWK) [SEQ ID NO: 1] | failed as hemostat in heparinized blood |  | not suitable | much faster time to hemostasis | performed as well as thrombin | hemostatic efficacy comparable to mixtures of Surgiflo™ with thrombin | instantly observed | complete precipitation of blood | concentrations that induce activation and aggregation of platelets (washed human platelets): 5 to 25 mM |
| pegylated SEQ ID NO: 1: SEQ ID NO: 1 with mPEG (average 2000 Da) conjugated onto the N-terminus via mPEG-NHS ({mPEG 2000 Da}-RFYVVMWK) | some hemostatic effect |  | not suitable | much faster time to hemostasis | performed as well as thrombin | better or similar hemostatic efficacy | instantly observed | complete precipitation of blood | hemostatic testing ([2]; Pluronic acid F127 scaffold, 5 mM, FIG. 6): failed in hemostatic testing; time to hemostasis vs thrombin ([2]; mixture with Surgiflo, 0.05 mM to 5 mM): comparable to thrombin; time to hemostasis ([2]; mixture with Surgiflo, 0.05 mM, FIG. 4, N=3): particularly fast time to hemostasis; time to hemostasis vs thrombin ([2]; mixture with Surgiflo, 0.1 mM): possibly better time to hemostasis than Thrombin; hemostatic efficacy vs SEQ ID NO: 1 and Thrombin ([2]; mixtures with Surgiflo, FIG. 4, further analysis): better hemostatic efficacy than SEQ ID NO: 1 and Thrombin; time to hemostasis ([1]; 2 mL of 5 mM in saline, heparinized blood, FIG. 7): 6.8 min; coagulated blood trapped in treated pad (fresh porcine blood): significant amount of coagulated blood; hemostatic efficacy vs Surgiflo/Thrombin [4]: working as well as Surgiflo/Thrombin |
| SEQ ID NO: 7: PEG2000-conjugated peptide KYFLLQFR (Lys-Tyr-Phe-Leu-Leu-Gln-Phe-Arg) (PEG2000-KYFLLQFR) |  | somewhat longer time to hemostasis, comparable to non-pegylated SEQ ID NO: 1 |  |  |  |  |  |  |  |
